In patent US20250041283A1, “COCRYSTAL OF AN IDH1 INHIBITOR, PROCESS OF PREPARATION THEREOF, PHARMACEUTICAL COMPOSITIONS THEREOF, AND METHODS OF TREATMENT INVOLVING THE SAME” (Servier Pharmaceuticals LLC, priority 2023, published 2025):

Experiments:
[1] = Solubility in biorelevant media (SGF, FASSIF); format: physicochemical; details: thermodynamic from solid, 37° C., after 1 h
[2] = Physicochemical stability of cocrystal powder stressed at different temperatures and humidities (XRPD); details: 6 weeks and 12 months at 25° C./60% RH, 25° C./90% RH, 40° C./75% RH and 50° C.
Method: (§1) FIG. 5 depicts the overlay of the X-ray diffraction spectra of the glutaric acid cocrystal type A of Compound 1 stressed 6 weeks at 25° C./60% RH, 25° C./90% RH, 40° C./75% RH and 50° C. with the theoretical X-ray diffraction spectrum of the said cocrystal (calculated form the single crystal structure).
as §1, with “FIG. 6” for “FIG. 5”, “stressed 12 months” for “stressed 6 weeks”
The XRPD patterns were recorded from 3.5° 2q to 35° 2q using an Empyrean diffractometer from Panalytical operating in the transmission mode with CuKα radiation (l=1.5418 Å) at 45 kV and 40 mA and with a 0.013° 2q step size for 15 minutes (list of examples).

[3] = Sorption/desorption isotherm 0% RH to 90% RH at 25° C.; format: physicochemical
Method: The sorption isotherm of the cocrystal was recorded between 0% RH and 90% RH at 25° C. (see FIG. 7).
The sorption/desorption isotherm of the cocrystal was recorded using the following method: • Equilibrate the sample at 0% RH until the dm/dt was below 0.0005% for 30 consecutive minutes or until maximum 24 hours. • Increase of the relative humidity up to 90% RH with step every 10% RH. Each step was maintained until the dm/dt was below 0.0005% for 30 consecutive minutes or until maximum 24 hours. • Decrease of the relative humidity up to 0% RH with step every 10% RH. Each step was maintained until the dm/dt was below 0.0005% for 30 consecutive minutes or until maximum 24 hours.

[4] = Tablets by direct compression: hardness and tensile strength; format: physicochemical; details: 50 mg tablets, 0.5% magnesium stearate
Method: Tablets were prepared by direct compression using a STYL'ONE EVO compaction simulator from Medelpharm Instruments.
Compound 1, either in Form 1, Form T11 or as a glutaric acid cocrystal type A was lubricated by 0.5% magnesium stearate before compression. 99.5% of Compound 1 and 0.5% of magnesium stearate (e.g., 4.975 g of Compound 1 and 0.025 g of magnesium stearate) were used. Compound 1 was weighed, and magnesium stearate was sifted on a 0.4 mm sieve and added progressively to Compound 1. The mixture was homogenized using a Turbula T2F blender for 5 minutes.
50 mg tablets were prepared using a STYL'ONE EVO compaction simulator applying a compressing force of 2.5 kN or 5.0 kN.

[5] = Flowability of lubricated mixtures (European Pharmacopeia); format: physicochemical
Method: The flowability of the lubricated mixture previously prepared was measured according to the Guidelines of European Pharmacopeia.

[6] = Comparative rat PK study, oral capsules; format: in vivo; details: male Wistar rats, 24 mg/kg
Method: The objective of this study was to compare the pharmacokinetics (PK) of four oral (PO) dosage forms of Compound 1 in male Wistar rats (4 groups, N=3/group). Lubricated mixtures prepared from Examples 5A (prepared from Form 1 and Form T11) and 5B (prepared from cocrystal of Example 1) and amorphous solid dispersion of Compound 1 obtained through spray drying as in commercial batches were manually and individually filled in capsules (Size 9).
The administered dose was 24 mg/kg, considering that each rat's weight was around 250 g.
Methods: Animals were fasted approximately 6 hours before dosing and fed 3 at 4 hours post-dose. All animals had free access to water. Compound 1 dose were given to rats via oral gavage (2 capsules/one single administration). Blood samples were collected via the saphenous vein into test tubes containing potassium ethylenediaminetetraacetic acid (K2EDTA) from all animals at 0.25, 0.5, 1, 2, 4, 8, 24, 48 and 72 hours post-dose. Blood sample were centrifuged at 2000 g for 5 minutes to obtain plasma samples. Compound 1 concentration in plasma samples was quantified using a liquid chromatography with tandem mass spectrometry (LC-MS/MS) method. The lower limit of quantification was 1.00 ng/mL with a sample volume of 20 μL.

[7] = Four weeks stability study of lubricated mixtures and tablets (XRPD); format: physicochemical; details: 4 weeks, open vials, 25° C./60% RH and 40° C./75% RH
Method: Four weeks stability of samples of lubricated mixtures of Example 3B and 5B and tablets of Example 6 prepared from cocrystal of Example 1 was tested according to the following protocol.
All the samples were stored 4 weeks in controlled temperature and humidity chambers in open vials at 25° C./60% RH or 40° C./75% RH. The XPRD analyses were performed extemporaneously in order to be representative of all the samples at temperature and humidity equilibria.
Tablets of Cocrystal+AQ/AV or AV (from Example 6) were gently grinded leading a powder suitable for XRPD analysis. Lubricated mixtures from Examples 3B and 5B were analyzed without grinding. The XRPD patterns were recorded from 3.5° 2q to 35° 2q using an Empyrean diffractometer from Panalytical operating in the transmission mode with CuKα radiation (l=1.5418 Å) at 45 kV and 40 mA and with a 0.013° 2q step size for 30 minutes.

[8] = compressive force applied 2.5 kN
[9] = compressive force applied 5.0 kN
[10] = lubricated mixtures of Examples 3A and 3B

solubility at 1 h ([1]; simulated gastric fluid, SGF): 8 µg/mL
solubility at 1 h ([1]; FASSIF): 13 µg/mL
Physicochemical stability of the powder [2]: physicochemically stable
Stability in humidity conditions (sorption isotherm) [3]: stable
Tablet hardness [4, 8]: 41.6 N
Tensile strength [4, 8]: 2.562 MPa
Tablet hardness [4, 9]: 46.4 N
Tensile strength [4, 9]: 2.998 MPa
Carr's Index [5, 10]: 24%
Carr's Index (flowability) rating [5, 10]: Adequate
Flowability [5, 10]: suitable flowability
Hausner ratio [5, 10]: 1.32
Hausner ratio (cohesion + compressibility) rating [5, 10]: Adequate
Flow time ([5]; lubricated mixtures of Examples 3A and 3B (AV, without AQ), N.S.F. = no spontaneous flow detected): 8.3 s
Inter-individual variability [6]: 11%
bioavailability ([6]; rat, plasma, read-out: Relative bioavailability compared to commercial formulation): 61%
Stability of the cocrystal in lubricated mixtures and tablets (AQ/AV or AV) [7]: perfectly stable
SMILES: N#Cc1ccnc(N2C(=O)CC[C@H]2C(=O)N(c2cncc(F)c2)[C@H](C(=O)NC2CC(F)(F)C2)c2ccccc2Cl)c1 [Glutaric acid cocrystal of Compound 1]
Kinetics of absorption / absorption profile versus commercial formulation [6]: comparable to the one of the commercial formulation
